Results from ChEMBL document CHEMBL1147945, “R-isomers of Arg-Gly-Asp (RGD) mimics as potent alphavbeta3 inhibitors” (Bioorg Med Chem, 2007).
The source made the active and inactive calls. The calls are words filed in the database; no cut-off is given here.

Experiments:
[1] = system: M21; assay: Decrease in tumor weight in SCID mouse implanted with human M21 cells at 100 mg/kg, ip twice daily after 28 days relative to control; format: functional; set-up: scale not given: the % may be the effect or the level left; settings: route intraperitoneal
[2] = system: Colon 26; assay: Inhibition of tumor growth in twice daily ip dosed BALB/c mouse implanted with mouse colon 26 tumor cells after 21 days; format: functional, organism-based
[3] = Drug level in BALB/c mouse plasma after 6 hrs at 1 mg/kg, ip; format: ADME, organism-based; set-up: dose 1 mg/kg, route intraperitoneal; settings: read-out: Drug uptake
[4] = Half life in mouse at 20 mg/kg po or 10 mg/kg iv; format: ADME, organism-based; settings: in vivo
[5] = system: Colon 26; assay: Decrease in tumor volume in BALB/c mouse implanted with mouse colon 26 tumor cells at 100 mg/kg, ip twice daily after 21 days relative to control; format: functional; set-up: scale not given: the % may be the effect or the level left; settings: route intraperitoneal
[6] = system: Mus musculus; assay: Decrease in colon 26 tumor-induced hypercalcemia in BALB/c mouse at 100 mg/kg, ip twice daily; format: functional; set-up: scale not given: the % may be the effect or the level left; settings: route intraperitoneal
[7] = molecular target: Integrin alpha-V/beta-3 (Homo sapiens, UniProt P05106+P06756); assay: Inhibition of alphaVbeta3 integrin receptor expressed in human 293 cells; format: cell-based, HEK293
Integrin alpha-V/beta-3, sequence (P05106 27-788 limits assumed): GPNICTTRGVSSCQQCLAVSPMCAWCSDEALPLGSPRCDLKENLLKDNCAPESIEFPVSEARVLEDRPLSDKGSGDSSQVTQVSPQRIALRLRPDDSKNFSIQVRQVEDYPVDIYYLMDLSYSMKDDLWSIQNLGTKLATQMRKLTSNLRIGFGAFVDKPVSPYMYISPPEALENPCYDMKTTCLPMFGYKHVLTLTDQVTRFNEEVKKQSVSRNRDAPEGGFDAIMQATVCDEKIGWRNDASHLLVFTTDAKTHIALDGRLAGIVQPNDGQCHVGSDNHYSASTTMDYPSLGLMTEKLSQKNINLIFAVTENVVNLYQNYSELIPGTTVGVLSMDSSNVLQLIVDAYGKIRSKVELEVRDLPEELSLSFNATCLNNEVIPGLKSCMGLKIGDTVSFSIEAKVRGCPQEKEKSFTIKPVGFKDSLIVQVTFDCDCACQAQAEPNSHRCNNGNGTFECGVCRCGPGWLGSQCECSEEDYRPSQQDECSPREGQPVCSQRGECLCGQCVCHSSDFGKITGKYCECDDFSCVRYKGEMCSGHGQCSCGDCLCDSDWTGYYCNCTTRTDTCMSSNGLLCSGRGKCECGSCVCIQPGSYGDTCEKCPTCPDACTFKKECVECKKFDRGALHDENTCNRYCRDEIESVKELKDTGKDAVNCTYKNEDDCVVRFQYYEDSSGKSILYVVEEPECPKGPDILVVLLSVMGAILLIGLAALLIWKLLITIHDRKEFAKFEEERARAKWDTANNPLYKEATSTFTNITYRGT
Integrin alpha-V/beta-3, sequence (P06756 31-889 limits assumed): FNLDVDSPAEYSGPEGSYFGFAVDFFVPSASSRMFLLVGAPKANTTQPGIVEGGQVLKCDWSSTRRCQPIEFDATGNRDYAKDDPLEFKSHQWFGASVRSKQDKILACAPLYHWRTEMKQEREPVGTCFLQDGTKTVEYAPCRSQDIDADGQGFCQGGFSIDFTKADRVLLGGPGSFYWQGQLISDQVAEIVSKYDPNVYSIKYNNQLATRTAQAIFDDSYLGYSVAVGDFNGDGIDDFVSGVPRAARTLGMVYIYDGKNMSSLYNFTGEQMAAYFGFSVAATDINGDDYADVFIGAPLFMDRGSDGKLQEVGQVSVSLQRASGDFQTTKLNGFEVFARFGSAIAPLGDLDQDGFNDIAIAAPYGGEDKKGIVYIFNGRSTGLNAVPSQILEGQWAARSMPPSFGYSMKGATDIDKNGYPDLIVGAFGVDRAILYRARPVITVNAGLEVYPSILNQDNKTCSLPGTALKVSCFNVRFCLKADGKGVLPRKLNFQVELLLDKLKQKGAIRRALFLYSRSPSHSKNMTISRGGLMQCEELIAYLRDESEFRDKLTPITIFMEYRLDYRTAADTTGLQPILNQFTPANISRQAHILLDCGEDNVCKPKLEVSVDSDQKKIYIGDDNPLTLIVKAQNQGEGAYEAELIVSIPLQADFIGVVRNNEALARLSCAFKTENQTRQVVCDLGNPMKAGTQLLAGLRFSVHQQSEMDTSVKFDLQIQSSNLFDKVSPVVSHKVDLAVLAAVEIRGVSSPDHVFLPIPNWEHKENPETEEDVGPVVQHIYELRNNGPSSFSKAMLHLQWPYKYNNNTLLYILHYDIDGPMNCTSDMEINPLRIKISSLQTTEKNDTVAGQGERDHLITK
Integrin alpha-V/beta-3, sequence (P06756 891-1048 limits assumed): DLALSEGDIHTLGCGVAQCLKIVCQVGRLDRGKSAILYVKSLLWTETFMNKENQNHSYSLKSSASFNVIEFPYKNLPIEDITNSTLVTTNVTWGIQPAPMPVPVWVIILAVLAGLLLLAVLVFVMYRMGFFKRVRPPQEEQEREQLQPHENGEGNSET

[8] = Drug level in BALB/c mouse plasma after 6 hrs at 10 mg/kg, ip; format: ADME, organism-based; set-up: dose 10 mg/kg, route intraperitoneal; settings: read-out: Drug uptake
[9] = system: M21; assay: Inhibition of tumor growth in twice daily ip dosed SCID mouse implanted with human M21 cells after 28 days; format: functional, organism-based
[10] = molecular target: Integrin alpha-V/beta-6 (Homo sapiens, UniProt P06756+P18564); assay: Inhibition of alpha-V-beta-6 integrin receptor in human HT29 cells; format: cell-based, HT-29
Integrin alpha-V/beta-6, sequence (P06756 31-889 limits assumed): as the sequence (P06756 31-889 limits assumed) above
Integrin alpha-V/beta-6, sequence (P06756 891-1048 limits assumed): as the sequence (P06756 891-1048 limits assumed) above
Integrin alpha-V/beta-6, sequence (P18564 22-788 limits assumed): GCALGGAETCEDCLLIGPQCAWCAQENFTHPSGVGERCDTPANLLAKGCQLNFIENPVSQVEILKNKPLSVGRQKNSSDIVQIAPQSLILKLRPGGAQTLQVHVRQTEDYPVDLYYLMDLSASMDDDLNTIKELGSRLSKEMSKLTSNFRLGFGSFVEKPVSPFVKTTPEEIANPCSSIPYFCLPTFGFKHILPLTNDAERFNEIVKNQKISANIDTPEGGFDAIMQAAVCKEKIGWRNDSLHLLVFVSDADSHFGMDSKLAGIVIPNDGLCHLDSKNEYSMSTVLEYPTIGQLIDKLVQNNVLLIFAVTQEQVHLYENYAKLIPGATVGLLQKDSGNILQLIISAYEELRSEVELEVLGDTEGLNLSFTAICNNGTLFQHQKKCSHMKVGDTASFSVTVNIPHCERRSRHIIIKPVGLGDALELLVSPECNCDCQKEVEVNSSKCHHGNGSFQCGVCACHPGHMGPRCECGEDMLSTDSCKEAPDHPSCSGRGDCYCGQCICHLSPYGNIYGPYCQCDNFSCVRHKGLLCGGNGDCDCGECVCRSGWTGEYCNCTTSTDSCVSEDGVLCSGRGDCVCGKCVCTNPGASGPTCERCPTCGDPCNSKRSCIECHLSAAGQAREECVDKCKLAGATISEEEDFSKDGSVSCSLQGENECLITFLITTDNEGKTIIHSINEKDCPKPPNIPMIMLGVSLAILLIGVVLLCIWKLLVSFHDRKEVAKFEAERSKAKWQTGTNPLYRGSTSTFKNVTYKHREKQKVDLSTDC

[11] = Drug level in BALB/c mouse plasma after 6 hrs at 100 mg/kg, ip; format: ADME, organism-based; set-up: dose 100 mg/kg, route intraperitoneal; settings: read-out: Drug uptake
[12] = system: Colon 26; assay: Decrease in tumor weight in BALB/c mouse implanted with colon 26 tumor cells at 100 mg/kg, ip twice daily after 21 days relative to control; format: functional; set-up: scale not given: the % may be the effect or the level left; settings: route intraperitoneal
[13] = Bioavailability in mouse at 20 mg/kg, po; format: ADME, organism-based; settings: in vivo
[14] = system: M21; assay: Decrease in tumor volume in SCID mouse implanted with human M21 cells at 100 mg/kg, ip twice daily after 28 days relative to control; format: functional; set-up: scale not given: the % may be the effect or the level left; settings: route intraperitoneal

concentration at 6 h [3]: 3300 ng/mL
half-life [4]: 120 min
IC50 [7]: 1 nM
concentration at 6 h [8]: 19400 ng/mL
IC50 [10]: 366 nM
concentration at 6 h [11]: 84.4 µg/mL
bioavailability [13]: 5.9%
Structure (SMILES): O=C(O)C[C@@H](NC(=O)CNC(=O)c1cc(O)cc(NC2=NCC(F)CN2)c1)c1cc(Cl)cc(Br)c1O (some centres undefined)
Activity [1]: 53%
Activity [2]: Active
Activity [5]: 60%
Activity [6]: 64%
Activity [9]: Dose-dependent effect
Activity [12]: 55%
Activity [14]: 62%
